In US20230236169A1, “NANOPLASMONIC BIOSENSOR FOR DETECTING AUTOPHAGY MARKER WITH HIGH SENSITIVITY, AND METHOD OF DETECTING AUTOPHAGY MARKER AND METHOD OF SCREENING DRUG CANDIDATE USING SAME” (KOREA UNIVERSITY RESEARCH AND BUSINESS FOUNDATION, priority 2021, published 2023):

How the values were obtained:
Type in all cases: cell-based, human
BT-474 [1] = test: LC3 nanoplasmonic biosensor analysis of cell lysates of BT-474 cells; settings: 12 hours
Method: (§1) Each cell line was cultured in a 10-cm dish under appropriate conditions before cell lysate preparation. […] Caov-3 cells were treated with bafilomycin A1 (1 μM) and allowed to starve for 24 to 48 hours before adding a cytosolic LC3 removal reagent. […] Pellet cells were then washed with ice-cold PBS and incubated for 15 minutes with RIPA lysis buffer and inhibitors (Halt™ Protease and Phosphatase Inhibitor Cocktail). Thereafter, sonication and centrifugation were repeated to afford a cell lysate at a final concentration of 1.6×10^6 cells/mL.
Cleanly washed microscope coverslip slides were pretreated with 10% (v/v) APTES for 1 hour, and then drop-coated with 10 μL of a diluted immuno-AuNR solution (OD: about 0.05). A closed water-bath microfluidic detection chamber including two coverslip slides with a gasket interposed therebetween was assembled and securely fixed for sample incubation and biosensing (FIG. 1). The detection chamber was then mounted on an automated dark-field microscope stage and a syringe pump was connected to the inlet of the detection chamber. Unbound immunogold on the surface of the coverslip slides was removed using ultrapure water at a flow rate of 100 μL min^−1 for 1 hour, followed by treatment with 1 mL of a 0.2 M ethanolamine solution for 30 minutes to inactivate unreacted functional groups. […]
The LSPR wavelength of each immunogold was recorded three times throughout the experiment: 1) before LC3 sample injection, 2) after LC3 sample incubation, and 3) after PEBP1 treatment. The LSPR wavelength of each AuNR stabilized on the bottom coverslip slide was rapidly recorded with an imaging microscope system (SERA, NOST, Seoul, Korea). […] The LSPR mapping results associated with the dark-field images were visualized on a monitor with RAON computer software (NOST, Seoul, Korea), and the plasmon shift (Δλmax) of each LSPR wavelength was calculated using OriginPro 9 software.

Caov-3 cell line [2] = test: LC3 Western blotting and LC3 ELISA of Caov-3 cell lysates; settings: Baf A for 20 minutes and 24 hours, FIG. 14
Method: as §1
The cell lysate prepared in Experimental Example 2 was quantified with a BCA assay kit (Thermo Fisher Scientific), and 40 μg thereof was loaded into each well. SDS-PAGE was conducted under conditions of 70 minutes or more, 15% gel, and 90 V. Primary (LC3B antibody, Cell Signaling) and secondary (goat anti-mouse, GenDEPOT) antibodies to LC3 were diluted 1:1000 and 1:5000, respectively, and respective antibodies to actin (anti beta-actin, AbFrontier) were also diluted 1:1000 and 1:10000. Other specific conditions were the same as the general protocol for Western blotting.

Caov-3 cell line [3] = test: LC3 nanoplasmonic biosensor analysis of cell lysates of Caov-3 cells
Method: as §1, with “Caov-3 cells were treated with bafilomycin A1 (1 μM) and allowed to starve for 24 to 48 hours before adding a cytosolic LC3 removal reagent.” left out
Cleanly washed microscope coverslip slides were pretreated with 10% (v/v) APTES for 1 hour, and then drop-coated with 10 μL of a diluted immuno-AuNR solution (OD: about 0.05). A closed water-bath microfluidic detection chamber including two coverslip slides with a gasket interposed therebetween was assembled and securely fixed for sample incubation and biosensing (FIG. 1). The detection chamber was then mounted on an automated dark-field microscope stage and a syringe pump was connected to the inlet of the detection chamber. Unbound immunogold on the surface of the coverslip slides was removed using ultrapure water at a flow rate of 100 μL min^−1 for 1 hour, followed by treatment with 1 mL of a 0.2 M ethanolamine solution for 30 minutes to inactivate unreacted functional groups. Thereafter, at least 10 μL of LC3 sample and PEBP1 (2 μg mL^−1) were injected into the chamber and incubated for 4 hours and 30 minutes, respectively, and contaminants were washed with ultrapure water before biosensing.
The LSPR wavelength of each immunogold was recorded three times throughout the experiment: 1) before LC3 sample injection, 2) after LC3 sample incubation, and 3) after PEBP1 treatment. The LSPR wavelength of each AuNR stabilized on the bottom coverslip slide was rapidly recorded with an imaging microscope system (SERA, NOST, Seoul, Korea). An automated surface scanning and imaging module with a high-resolution EMCCD detector (888, iXon Life, Oxford Instrument, Belfast, Northern Ireland) was connected to large-area (130×130 μm) computer-assisted high-speed LSPR mapping through a single click. The LSPR mapping results associated with the dark-field images were visualized on a monitor with RAON computer software (NOST, Seoul, Korea), and the plasmon shift (Δλmax) of each LSPR wavelength was calculated using OriginPro 9 software.
Then, the LSPR peak shift of the Caov-3 cell line treated with bafilomycin A or not treated therewith was represented in the form of a cumulative bar graph, as shown in FIG. 13. Here, the regular and hatched boxes represent the measured first and second LSPR shifts, respectively, and error bars correspond to the standard errors measured in 60 immuno-AuNRs.

MDA-MB-231 [4] = test: Cell viability (EZ-Cytox); settings: Baf A 50 nM or Tz 20 μg mL^−1; 6, 24 and 48 hours
Method: (§2) Each cell line was preincubated in 96 wells at 5×10^4 cells per well in a CO2 incubator (37° C., 5% CO2, 2-24 hours). […] Each well was treated with 10 μL of EZ-Cytox (DoGen Bio, Korea), followed by further incubation for at least 1 hour. Thereafter, UV-vis absorbance at 450 nm was recorded.

BT-474 [5] = test: Cell viability (EZ-Cytox); settings: Baf A 50 nM or Tz 20 μg mL^−1; 6, 24 and 48 hours
Method: as §2

MDA-MB-231 [6] = test: LC3 nanoplasmonic biosensor analysis of cell lysates of MDA-MB-231 cells; settings: 12 hours
[7] = before the additional treatment (read as 50 nM Baf A alone)

## CO/C1=C\C(C)=C\[C@@H](C)[C@@H](O)[C@@H](C)C/C(C)=C/C=C/[C@H](OC)[C@@H]([C@@H](C)[C@@H](O)[C@H](C)[C@@]2(O)C[C@@H](O)[C@H](C)[C@@H](C(C)C)O2)OC1=O [Baf A, bafilomycin A]
BT-474 [1]; 50 nM Baf A, versus no Baf A
  change of first-step LSPR Δλmax and LC3-II ratio: greater first-step LSPR Δλmax and an increased LC3-II ratio
BT-474 [1]; [7]
  LC3-II ratio (Equation 1): 68.1%
  first-step LSPR Δλmax: 7.23±0.33 nm
Caov-3 cell line [2]
  LC3 expression by Western blotting and ELISA: LC3-II accumulation was induced
Caov-3 cell line [3]; Baf A for 20 minutes
  LC3-II composition (Equation 1): 6.78%
Caov-3 cell line [3]; Baf A for 24 hours
  LC3-II composition (Equation 1): 78.8%
  first LSPR peak shift: 10.2±0.25 nm
Caov-3 cell line [3]; Baf A for 24 hours, after PEBP1
  second LSPR peak shift: 1.53±0.29 nm
MDA-MB-231 [4]
  cell viability over time: gradual cell death
BT-474 [5]
  cell viability over time: gradual cell death
MDA-MB-231 [6]; 50 nM Baf A, versus no Baf A
  change of first-step LSPR Δλmax and LC3-II ratio: greater first-step LSPR Δλmax and an increased LC3-II ratio
MDA-MB-231 [6]; [7]
  first-step LSPR Δλmax: 10.40±0.35 nm
